One test has as its target T1, HDM2 (Homo sapiens, UniProt Q00987).
T1 construct: Thioredoxin (N); made in house; host or cells: E. coli strain BL21(DE3)Rosetta
The experiment in a line: FRET assay (HDM2 inhibition; method not described in this part). The note with it: Table 2. The test is classed as binding.
T1 sequence (Q00987 17-125): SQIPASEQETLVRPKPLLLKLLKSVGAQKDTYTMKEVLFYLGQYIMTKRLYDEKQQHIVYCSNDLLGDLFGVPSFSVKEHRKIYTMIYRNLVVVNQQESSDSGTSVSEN
Turning to `CCc1ccccc1-c1nc2nc(C(=O)O)nc(N[C@H](C)C3CCC3)c2n1Cc1ccc(C(F)(F)F)cc1` [Example 2.81, 6-{[(1R)-1-cyclobutylethyl]amino} -8-(2-ethylphenyl)-7-[4-(trifluoromethyl)benzyl] - 7H-purine-2-carboxylic acid], the IC50 (as a rule, the concentration needed to halve the response being measured) was determined as 18 nM. Take `CCc1ccc(C)cc1-c1nc2nc(C(=O)O)nc(N[C@H](C)C3CCC3)c2n1Cc1ccc(C(F)(F)F)cc1` [Example 2.82, 6-{[(1R)-1-cyclobutylethyl]amino}-8-(2-ethyl-5-methylphenyl)-7-[4-(trifluoromethyl)benzyl]-7H-purine-2-carboxylic acid]: the IC50 amounted to 13.6 nM. Still for that read-out and setting: the figure for `C[C@@H](Nc1nc(C(=O)O)nc2nc(-c3cnn(C)c3)n(Cc3ccc(C(F)(F)F)cc3)c12)C1CCC1` [Example 2.83, 6-{[(1R)-1-cyclobutylethyl]amino} -8-(1-methyl-1H-pyrazol-4-yl)-7-[4-(trifluoromethyl)benzyl] - 7H-purine-2-carboxylic acid] is 189 nM. The same measure, in the same setting: the figure for `Cc1noc(C)c1-c1nc2nc(C(=O)O)nc(N[C@H](C)C3CCC3)c2n1Cc1ccc(C(F)(F)F)cc1` [Example 2.84, 6-{[(1R)-1-cyclobutylethyl]amino} -8-(3,5-dimethylisoxazol-4-yl)-7-[4-(trifluoromethyl)benzyl] - 7H-purine-2-carboxylic acid] is 79.4 nM.

The same test, now with this note: Table 3.
For `C[C@@H](Nc1nc(C(=O)O)nc2nc(-c3nccn3C)n(Cc3ccc(C(F)(F)F)cc3)c12)C1CCC1` [Example 3.1, (R)-6-((1-cyclobutylethyl)amino)-8-(1-methyl-1H-imidazol-2-yl)-7-(4-(trifluoromethyl)benzyl)-7H-purine-2-carboxylic acid], the half-maximal inhibitory concentration (IC50) was 161 nM.

As for `CC(C)c1ccnc(-c2nc3nc(C(=O)O)nc(N[C@H](C)C4CCC4)c3n2Cc2ccc(C(F)(F)F)cc2)n1` [Example 3.2, (R)-6-((1-cyclobutylethyl)amino)-8-(4-isopropylpyrimidin-2-yl)-7-(4-(trifluoromethyl)benzyl)-7H-purine-2-carboxylic acid], the IC50 amounted to 22 nM. On the same count and under the same terms, the figure for `CC(C)c1cnc(-c2nc3nc(C(=O)O)nc(N[C@H](C)C4CCC4)c3n2Cc2ccc(C(F)(F)F)cc2)s1` [Example 3.3, (R)-6-((1-cyclobutylethyl)amino)-8-(5-isopropylthiazol-2-yl)-7-(4-(trifluoromethyl)benzyl)-7H-purine-2-carboxylic acid] is 57.9 nM. On to `C[C@@H](Nc1nc(C(=O)O)nc2nc(-c3ncccn3)n(Cc3ccc(C(F)(F)F)cc3)c12)C1CCC1` [Example 3.4, 6-{[(1R)-1-cyclobutylethyl]amino}-8-pyrimidin-2-yl-7-[4-(trifluoromethyl)benzyl] -7H-purine-2-carboxylic acid], for which the IC50 was determined as 69.8 nM.

Compound `C[C@@H](Nc1nc(C(=O)O)nc2nc(-c3ncco3)n(Cc3ccc(C(F)(F)F)cc3)c12)C1CCC1` [Example 3.5, 6-{[(1R)-1-cyclobutylethyl]amino}-8-(1,3-oxazol-2-yl)-7-[4-(trifluoromethyl)benzyl] -7H-purine-2-carboxylic acid] yielded an IC50 of 30 nM. On the same count and under the same terms, then `CC(C)c1csc(-c2nc3nc(C(=O)O)nc(N[C@H](C)C4CCC4)c3n2Cc2ccc(C(F)(F)F)cc2)n1` [Example 3.6, 6-{[(1R)-1-cyclobutylethyl]amino}-8-[4-(1-methylethyl)-1,3-thiazol-2-yl]-7-[4-(trifluoromethyl)benzyl] -7H-purine-2-carboxylic acid], with 312 nM; and `Cc1cnc(-c2nc3nc(C(=O)O)nc(N[C@H](C)C4CCC4)c3n2Cc2ccc(C(F)(F)F)cc2)s1` [Example 3.7, 6-{[(1R)-1-cyclobutylethyl]amino}-8-(5-methyl-1,3-thiazol-2-yl)-7-[4-(trifluoromethyl)benzyl] -7H-purine-2-carboxylic acid], with 42 nM; and `C[C@@H](Nc1nc(C(=O)O)nc2nc(-c3nccs3)n(Cc3ccc(Cl)cc3)c12)C1CC1` [Example 3.8, 7-(4-chlorobenzyl)-6-{[(1R)-1-cyclopropylethyl]amino}-8-(1,3-thiazol-2-yl)-7H-purine-2-carboxylic acid], with 98.8 nM. On the same count and under the same terms, then `C[C@@H](Nc1nc(C(=O)O)nc2nc(-c3nccs3)n(Cc3ccc(C(F)(F)F)cc3)c12)C1CCC1` [Example 3.9, 6-{[(1R)-1-cyclobutylethyl]amino}-8-(1,3-thiazol-2-yl)-7-[4-(trifluoromethyl)benzyl] -7H-purine-2-carboxylic acid], with 7.86 nM.

The test is the same for the next values; noted with them: Table 4.
`CCOc1ccc(C)cc1-c1nc2nc(C(=O)O)nc(N[C@H](C)C3CCC3)c2n1Cc1ccc(Cl)cc1` [Example 4.1, (R)-7-(4-chlorobenzyl)-6-((1-cyclobutylethyl)amino)-8-(2-ethoxy-5-methylphenyl)-7H-purine-2-carboxylic acid] displayed an IC50 of 32 nM.

In turn, `Cc1ccc(C)c(-c2nc3nc(C(=O)O)nc(N[C@H](C)C4CCC4)c3n2Cc2ccc(Cl)cc2)c1` [Example 4.2, (R)-7-(4-chlorobenzyl)-6-((1-cyclobutylethyl)amino)-8-(2,5-dimethylphenyl)-7H-purine-2-carboxylic acid] showed an IC50 of 40.4 nM. Compound `C=CCCOc1ccc(C)cc1-c1nc2nc(C(=O)O)nc(N[C@H](C)C3CC3)c2n1Cc1ccc(Cl)cc1` [Example 4.3, (R)-8-(2-(but-3-en-1-yloxy)-5-methylphenyl)-7-(4-chlorobenzyl)-6-((1-cyclopropylethyl)amino)-7H-purine-2-carboxylic acid] had an IC50 of 104 nM. The compound `COCCCOc1ccc(C)cc1-c1nc2nc(C(=O)O)nc(N[C@H](C)C3CCC3)c2n1Cc1ccc(Cl)cc1` [Example 4.4, (R)-7-(4-chlorobenzyl)-6-((1-cyclobutylethyl)amino)-8-(2-(3-methoxypropoxy)-5-methylphenyl)-7H-purine-2-carboxylic acid] registered an IC50 of 48.7 nM. Still for that read-out and setting: then `COCCCOc1ccc(C)cc1-c1nc2nc(C(=O)O)nc(N[C@H](C)C3CC3)c2n1Cc1ccc(Cl)cc1` [Example 4.5, (R)-7-(4-chlorobenzyl)-6-((1-cyclopropylethyl)amino)-8-(2-(3-methoxypropoxy)-5-methylphenyl)-7H-purine-2-carboxylic acid], with 162 nM; and `Cc1ccc(OCCCO)c(-c2nc3nc(C(=O)O)nc(N[C@H](C)C4CCC4)c3n2Cc2ccc(Cl)cc2)c1` [Example 4.6, (R)-7-(4-chlorobenzyl)-6-((1-cyclobutylethyl)amino)-8-(2-(3-hydroxypropoxy)-5-methylphenyl)-7H-purine-2-carboxylic acid], with 33.7 nM; and `CCOc1ccc(C)cc1-c1nc2nc(C(=O)O)nc(N[C@H](C)C3CC3)c2n1Cc1ccc(Cl)cc1` [Example 4.7, (R)-7-(4-chlorobenzyl)-6-((1-cyclopropylethyl)amino)-8-(2-ethoxy-5-methylphenyl)-7H-purine-2-carboxylic acid], with 123 nM.

The compound `COCCOc1ccc(C)cc1-c1nc2nc(C(=O)O)nc(N[C@H](C)C3CCC3)c2n1Cc1ccc(Cl)cc1` [Example 4.8, (R)-7-(4-chlorobenzyl)-6-((1-cyclobutylethyl)amino)-8-(2-(2-methoxyethoxy)-5-methylphenyl)-7H-purine-2-carboxylic acid] showed an IC50 of 55 nM. Still for that read-out and setting: then `COCCOc1ccc(C)cc1-c1nc2nc(C(=O)O)nc(N[C@H](C)C3CC3)c2n1Cc1ccc(Cl)cc1` [Example 4.9, (R)-7-(4-chlorobenzyl)-6-((1-cyclopropylethyl)amino)-8-(2-(2-methoxyethoxy)-5-methylphenyl)-7H-purine-2-carboxylic acid], with 27.3 nM. On the same count and under the same terms, then `Cc1ccc(OCCO)c(-c2nc3nc(C(=O)O)nc(N[C@H](C)C4CC4)c3n2Cc2ccc(Cl)cc2)c1` [Example 4.10, (R)-7-(4-chlorobenzyl)-6-((1-cyclopropylethyl)amino)-8-(2-(2-hydroxyethoxy)-5-methylphenyl)-7H-purine-2-carboxylic acid], with 238 nM; and `Cc1ccc(OCCC(=O)O)c(-c2nc3nc(C(=O)O)nc(N[C@H](C)C4CC4)c3n2Cc2ccc(Cl)cc2)c1` [Example 4.11, (R)-8-(2-(2-carboxyethoxy)-5-methylphenyl)-7-(4-chlorobenzyl)-6-((1-cyclopropylethyl)amino)-7H-purine-2-carboxylic acid], with 312 nM; and `Cc1ccc(OCCC(=O)NCCO)c(-c2nc3nc(C(=O)O)nc(N[C@H](C)C4CC4)c3n2Cc2ccc(Cl)cc2)c1` [Example 4.12, (R)-7-(4-chlorobenzyl)-6-((1-cyclopropylethyl)amino)-8-(2-(3-((2-hydroxyethyl)amino)-3-oxopropoxy)-5-methylphenyl)-7H-purine-2-carboxylic acid], with 348 nM. Regarding `CNC(=O)CCOc1ccc(C)cc1-c1nc2nc(C(=O)O)nc(N[C@H](C)C3CC3)c2n1Cc1ccc(Cl)cc1` [Example 4.13, (R)-7-(4-chlorobenzyl)-6-((1-cyclopropylethyl)amino)-8-(5-methyl-2-(3-(methylamino)-3-oxopropoxy)phenyl)-7H-purine-2-carboxylic acid], the IC50 came to 487 nM. On the same count and under the same terms, the figure for `Cc1ccc(OCCCN2CCOCC2)c(-c2nc3nc(C(=O)O)nc(N[C@H](C)C4CC4)c3n2Cc2ccc(Cl)cc2)c1` [Example 4.14, (R)-7-(4-chlorobenzyl)-6-((1-cyclopropylethyl)amino)-8-(5-methyl-2-(3-morpholinopropoxy)phenyl)-7H-purine-2-carboxylic acid] is 212 nM; for `COCCN(CCCOc1ccc(C)cc1-c1nc2nc(C(=O)O)nc(N[C@H](C)C3CC3)c2n1Cc1ccc(Cl)cc1)CCOC` [Example 4.15, (R)-8-(2-(3-(bis(2-methoxyethyl)amino)propoxy)-5-methylphenyl)-7-(4-chlorobenzyl)-6-((1-cyclopropylethyl)amino)-7H-purine-2-carboxylic acid] it is 667 nM. On the same count and under the same terms, then `Cc1ccc(OCCCO)c(-c2nc3nc(C(=O)O)nc(N[C@H](C)C4CC4)c3n2Cc2ccc(C#N)cc2)c1` [Example 4.16, (R)-7-(4-cyanobenzyl)-6-((1-cyclopropylethyl)amino)-8-(2-(3-hydroxypropoxy)-5-methylphenyl)-7H-purine-2-carboxylic acid], with 481 nM.

For the origin of these results see EP2951180B1, “2,6,7,8 SUBSTITUTED PURINES AS HDM2 INHIBITORS” (Merck Sharp & Dohme Corp., priority 2013, dated 2014).
